# Data taken from patent publication US12076341B2, “Use of apoptotic compensatory proliferation signaling vesicles in tissue repair and wound healing” (Rush University Medical Center, priority 2018, dated 2024).
# “Also recorded” adds a separate entry of the source. Where a SMILES comes first, the peptide text is derived from it. The star is where a group is joined. Cbz = O=C(OCc1ccccc1)*; CH2F = FC*
# How the values were obtained:
# Format in all cases: cell-based
# Hela cells [1] = experiment: IF time-lapse videomicroscopy of transfected Hela cells (apoptosis, vesicle formation, compensatory proliferation signaling); settings: cells pre-treated with Z-VAD prior to transfection
# Hela cells [2] = experiment: Proliferation assay by cell counts, adherent Hela cells treated with 16K fraction vesicles; settings: 16K fraction of Z-VAD treated serum-starved Hela cells; cell count 24 h
# Experimental: Generation and Purification of ACPSVs: 7.5×10^6 cells were cultured in 150 mm^2 flasks (TPP) overnight in 25 mL of indicated media. Next day, cells were induced to undergo intrinsic apoptosis by serum-starvation, extrinsic apoptosis apoptosis by treatment with anti-Fas mAb (abcam-ab11881), or anoikis apoptosis by growing the cells detached from the surface in suspension media in Thermo Scientific Nunclon Sphera plates, in the presence or absence of Z-VAD. 24 to 48 h after induction of apoptosis, culture supernatants from serum-fed healthy (Mock) and apoptotic cells were collected and subjected to differential centrifugation. […] The proliferation-inducing effect associated with each fraction was determined by cell counts after growing recipient cells for 24 h at 37° C. in the presence of 5% CO2, using a hemocytometer after trypsin digestion.
# Proliferation Assay. […] The next day at the time of treatment with vesicles, the initial cell number per well (0 h) was determined by trypsin digestion and cell counts using a hemocytometer. […] Proliferation rates were determined blindly by cell counts determination using a hemocytometer.
# Hela cells [3] = experiment: Apoptotic cell death of serum-starved Hela cells by flow cytometry; settings: Z-VAD pretreatment; 24 h serum starvation
# Experimental: (§1) (FIG. 2A) Hela cells either received 10% serum (Mock) or were induced to undergo apoptosis by serum-starvation in the presence or absence of Z-VAD. 24 h after serum starvation, apoptotic cell death was assessed by flow cytometry and the tabulated results from 3 independent experiments are shown in (FIG. 2B). (*** p<0.001, One-way ANOVA). (FIGS. 2C-21) Supernatants from the indicated cultures were fractionated by differential centrifugation and evaluated for their Crkl-containing microvesicles (ACPSVs) and CPS. (FIG. 2C) ACPSVs in the 16K fraction of apoptotic cells were visualized by DIC. (FIG. 2D) Vesicle size distribution was determined and plotted (Mean size±S.D.=1.76±1.04 μm, n=822). […] (FIG. 2H) The lipid contents of the vesicles in the 16K fractions of the indicated cultures were measured and the tabulated data from 3 experiments are shown. […] (FIG. 2I) Hela cells were treated with 16K fractions of serum-fed healthy (Mock), serum-starved apoptotic (Apop.), or Z-VAD treated serum-starved (Apop.+Z-VAD) and the proliferation levels were determined by cell count 24 h after treatment. […] 24 h after serum starvation, cells were fixed and analyzed by SEM. […] Five hours after vesicle addition, the fractions of mitotic cells, with no vesicle (NV); with ACPSV only (+AC); with apoptotic body only (+AB); or with a combination of vesicles (+Mix) were assessed by SEM. […]
# Hela cells [4] = experiment: Vesicle production in 16K fraction of serum-starved Hela cells (Crkl Western blot, lipid content); settings: Z-VAD pretreatment; Crkl level and lipid content of 16K fraction
# Experimental: as §1
# [5] = test system: human epithelial keratinocytes (HEK); experiment: Anoikis apoptosis, vesicle formation and CPS of HEK cells grown in suspension media; settings: 60 μm Z-VAD
# Experimental: HEK primary cells also product Crkl-containing vesicles which mediate CPS in other cells. (FIG. 8A) HEK cells were cultured either seeded (Mock) or induced to undergo anoikis apoptosis by culturing them in suspension media in the presence or absence of Z-VAD. (FIGS. 8A-8B) Supernatants from the indicated cultures were fractionated, as in FIG. 2, and their 16K fractions were evaluated for ACPSV production by Western blotting, using Crkl as a marker for vesicles, whose expression from 3 experiments was evaluated by densitometer and plotted below (FIG. 8A) or by lipid content measurements from 3 experiments in FIG. 8B. (n=3, * p≤ 0.05, ** p≤ 0.01, *** p≤ 0.001, one-way ANOVA). (FIG. 8C) ACPSVs in 16K fraction of apoptotic HEK cells were visualized by DIC. Similar to HeLa and B16 cells, vesicles from apoptotic HEK cells were globular and ranged between 1-1.8 micron in diameter. (FIG. 8D) HEK cells were treated with vesicles (16K fractions) harvested from HEK seeded healthy (Mock) cultures, or HEK grown in suspension media (Apop.), or HEK grown in suspension media in the presence of Z-VAD (Apop.+Z-VAD). 24 h after treatment, the proliferation levels were determined by cell counts and the tabulated data from 3 independent experiments were shown as the Mean±S.D. (** p<0.01, *** p≤ 0.001, one-way ANOVA). […]
smiles,measurement,setting,value
CC(NC(=O)C(NC(=O)OCc1ccccc1)C(C)C)C(=O)NC(CC(=O)O)C(=O)CF (stereo not drawn) [Z-VAD] (Cbz-Val-Ala-Asp-CH2F; configuration not given here),ACPSV formation and release from Crkl-GFP transfected Hela cells,Hela cells [1],inhibits apoptosis and vesicle formation; also recorded: not formed or released
same,CPS in recipient cells,Hela cells [2],abrogated
same,apoptosis in serum-starved Hela cells,Hela cells [3],significantly reduced
same,vesicle production in serum-starved cells,Hela cells [4],significantly reduced
same,apoptosis in HEK cells grown in suspension media,[5],significantly reduced
same,vesicle formation and CPS in HEK cells grown in suspension media,[5],prevented
